This is an account of results in PubChem BioAssay AID651973 (The Scripps Research Institute Molecular Screening Center, 2013).

As usually defined, the IC50 is the midpoint of a concentration-inhibition curve.

The test system of this assay is Cell-based VP16 transactivation luciferase reporter, luminescence. The assay is described as follows: VP16 transactivation reporter inhibitors, dose response, counter-screen for LRH-1 inverse agonist project, cell-based, luminescence (AID 651973).

The source made the active and inactive calls. How the calls were made is not given here.

As for `Cc1cc(Br)ccc1NC(=O)CN1C(=O)C2CC=CCC2C1=O` (stereo not given), the IC50 was > 35.9 µM (inactive).

With `CCn1cc(Br)c(C(=O)Nc2ccccc2C(=O)OC)n1`, the IC50 was > 35.9 µM (inactive).

`CCc1cc(=O)oc2c(C)c(OCC(=O)NCCCN3CCOCC3)ccc12`: the IC50 is > 35.9 µM (inactive).

As for `Cc1cc([N+](=O)[O-])ccc1NC(=O)CSc1nnc(C)n1C`, the IC50 was > 35.8 µM (inactive).

Regarding `CCC(C)(C)n1nnnc1CN1CCC(O)(c2cccc(C(F)(F)F)c2)CC1`, the IC50 was > 35.9 µM (inactive).

As for `COc1ccc(CC(NC(C)=O)C(=O)NC2CCN(c3nnnn3-c3ccccc3)CC2)cc1` (stereo not given), the IC50 was > 35.9 µM (inactive).

For `CCOc1ccc(NC(=O)COC(=O)c2ccc3c(c2)OCCO3)cc1`, the IC50 is > 35.9 µM (inactive).

Consider `CCOC(=O)c1cc2sccc2n1CC(=O)Nc1ccc2c(c1)OCCO2`, for which the IC50 is > 35.9 µM (inactive).

Consider `CCCc1cc(=O)oc2c(C)c(OCC(=O)NC3CC(C)(C)NC(C)(C)C3)ccc12`, for which the IC50 was > 35.9 µM (inactive).

`NS(=O)(=O)c1ccc(CCNC(=O)COc2ccc3c4c(c(=O)oc3c2)CCC4)cc1`: the IC50 is > 35.9 µM (inactive).

On to `O=C(Nc1ccc(Cc2ccncc2)cc1)c1ccc([N+](=O)[O-])o1`, for which the IC50 was > 35.9 µM (inactive).

`O=C(COc1ccc2c3c(c(=O)oc2c1)CCCC3)NCc1ccccn1`: the IC50 is > 35.9 µM (inactive).

For `O=C(Nc1ccc(S(=O)(=O)N2CCOCC2)cc1)c1cccc([N+](=O)[O-])c1`, the IC50 was > 35.9 µM (inactive).

On to `O=C(COc1ccc(S(=O)(=O)N2CCCC2)cc1Cl)Nc1ccc2c(c1)OCO2`, for which the IC50 was > 35.9 µM (inactive).

Take `COc1ccccc1NC(=O)c1ccc(NC(=O)CSc2nnnn2C)cc1`: the IC50 was > 35.9 µM (inactive).

In the case of `Cc1cc(OCC(=O)Nc2nccs2)c2c(C)cc(=O)oc2c1`, the IC50 is > 35.9 µM (inactive).

With `CCc1cc(=O)oc2c(C)c(OCC(=O)NC3CC(C)(C)NC(C)(C)C3)ccc12`, the IC50 is > 35.9 µM (inactive).

Regarding `Cc1ccc(-c2csc(NC(=O)c3ccc([N+](=O)[O-])o3)n2)cc1`, the IC50 was > 35.9 µM (inactive).

As to `CN1CCN(c2ccc(S(=O)(=O)N3CCCCC3)cc2NC(=O)COc2ccc([N+](=O)[O-])cc2)CC1`, the IC50 is > 35.9 µM (inactive).

As to `COc1ccc(NC(=O)CSc2sc3c(O)cc(=O)[nH]c3c2C#N)c(OC)c1`, the IC50 was > 35.9 µM (inactive).

As for `O=C(Nc1ccc(Br)cn1)c1ccc([N+](=O)[O-])o1`, the IC50 is > 35.9 µM (inactive).

On to `O=C1CCCN2N=C(SCC(=O)Nc3ccc(Br)cc3)SC2=N1`, for which the IC50 is > 35.9 µM (inactive).

In the case of `COc1ccc(CCNC(=O)CN2C(=O)NC3(CCCCC3C)C2=O)cc1` (stereo not given), the IC50 is > 35.9 µM (inactive).

Consider `COCC(=O)NC1CCN(CC(=O)Nc2ccc(OC)cc2[N+](=O)[O-])CC1`, for which the IC50 was > 35.9 µM (inactive).

For the compound `COc1ccc(NC(=O)CSc2ncnc3[nH]ncc23)cc1`, the IC50 is > 35.9 µM (inactive).

In the case of `Cc1cc(C)c2nc(NC(=O)c3ccc([N+](=O)[O-])o3)sc2c1`, the IC50 was > 35.9 µM (inactive).

With `Cc1ccc(C)c(NC(=O)CSc2nnc(-c3n[nH]c4ccccc34)o2)c1`, the IC50 was > 35.9 µM (inactive).

Consider `Cc1ccc(-c2nn3c(C)nnc3s2)cc1NC(=O)c1ccco1`, for which the IC50 was > 35.9 µM (inactive).

Turning to `NS(=O)(=O)c1ccc(O)c(NC(=O)c2ccc([N+](=O)[O-])o2)c1`, the IC50 is > 35.9 µM (inactive).

`CC(=O)Nc1ccc(NC(=O)COC(=O)Cc2c[nH]c3ccccc23)cc1`: the IC50 is > 35.9 µM (inactive).

For the compound `O=C(Nc1nc2c(Cl)cccc2s1)c1ccc([N+](=O)[O-])o1`, the IC50 is > 35.9 µM (inactive).

For `CC(=O)Nc1ccc(NC(=O)CSc2ccc(-c3ccco3)nn2)cc1`, the IC50 was > 35.9 µM (inactive).

As for `CCn1c(SCC(=O)Nc2ccc(Cl)cc2)nnc1C1CC1`, the IC50 is > 35.9 µM (inactive).

As for `CC1SC(C)C(=O)N(CC(=O)Nc2ccc3c(c2)OCO3)C1=O` (stereo not given), the IC50 is > 35.9 µM (inactive).

For `COc1ccc(S(=O)(=O)Nc2ccc3c(c2)n(C)c(=O)n3C)cc1F`, the IC50 was > 35.9 µM (inactive).

Turning to `O=C(CCl)NCCN1C(=O)S/C(=C\c2cccnc2)C1=O`, the IC50 is 26.8 µM (inactive).

`CC(O)(c1cccc(F)c1)c1nc(-c2ccc(S(C)(=O)=O)cc2)cs1` (stereo not given): the IC50 was 16.2 µM (inactive).

Consider `N#Cc1cc([N+](=O)[O-])ccc1NC(=O)COC(=O)C1CCC(=O)N1` (stereo not given), for which the IC50 is > 35.9 µM (inactive).

For `COc1ccnc(Oc2ccccc2)c1C(=O)N/C=N/OCc1ccccc1F`, the IC50 is 28.2 µM (inactive).

Consider `CC(C)(Oc1ccc(Cl)cc1)C(=O)OCC(=O)NCCc1ccccc1`, for which the IC50 is > 35.9 µM (inactive).

Consider `O=C(COc1ccc2c3c(c(=O)oc2c1)CCC3)NCc1ccncc1`, for which the IC50 is > 35.9 µM (inactive).

Take `CCc1cc(=O)oc2cc(C)cc(OCC(=O)NC3CC3)c12`: the IC50 was > 35.9 µM (inactive).

With `Nc1ccc(C(=O)NN2C(=O)[C@H](Cl)C2c2ccc(Cl)cc2)cc1` (stereo not given in full), the IC50 is 9.87 µM.

With `COc1ccc(CCNC(=O)CSc2nn3c(=O)c(C)nnc3s2)cc1OC`, the IC50 was > 35.9 µM (inactive).

With `COC(=O)c1ccc(CNC(=O)COC(=O)c2cc(Cl)nc(Cl)c2)cc1`, the IC50 is > 35.9 µM (inactive).

For the compound `Cc1ccc(NC(=O)CSc2nc3[nH]c(=O)cc(O)c3s2)c(Br)c1`, the IC50 was > 35.9 µM (inactive).

On to `O=C(CN1C(=O)CCC1=O)Nc1ccc(Br)cc1`, for which the IC50 was > 35.9 µM (inactive).

On to `O=C(COC(=O)c1ccc(=O)n(Cc2ccccc2)n1)Nc1ccc2c(c1)OCCO2`, for which the IC50 was > 35.9 µM (inactive).

Regarding `Cc1onc(NC(=O)c2ccc([N+](=O)[O-])o2)c1Br`, the IC50 is > 35.9 µM (inactive).

As for `COc1cccc(-c2cnc3c(NC(C)=O)cc(-c4ccc(S(C)(=O)=O)cc4)cn23)c1`, the IC50 was > 35.9 µM (inactive).

Take `CCCc1cc(=O)oc2cc(OCC(=O)NCc3ccccn3)ccc12`: the IC50 is > 35.9 µM (inactive).

In the case of `CCOc1ccc(NC(=O)CSc2nc3[nH]ncc3c(=O)[nH]2)cc1`, the IC50 is > 35.9 µM (inactive).

Take `COc1ccc(C2(C)NC(=O)N(CC(=O)Nc3ccc(C)cc3Br)C2=O)cc1OC` (stereo not given): the IC50 was > 35.9 µM (inactive).

As for `COc1cccc(C(=O)COc2cccc(NC(=O)c3cccc([N+](=O)[O-])c3)c2)c1`, the IC50 was 8.46 µM.

`COc1cc2c(cc1OC)CN(C(=O)CN1C(=O)NC3(CCC(C)CC3)C1=O)CC2` (stereo not given): the IC50 was > 35.9 µM (inactive).

`CC(=O)Nc1cc(-c2cccc(F)c2)cn2c(-c3ccc(S(C)(=O)=O)cc3)cnc12`: the IC50 was 18.7 µM (inactive).

Take `CC(Oc1ccc(S(=O)(=O)N2CCCC2)cc1[N+](=O)[O-])C(=O)NC(C)c1ccccc1` (stereo not given): the IC50 was 20.1 µM (inactive).

Turning to `O=C(NC1CCCC(C(F)(F)F)C1)c1ccc([N+](=O)[O-])o1` (stereo not given), the IC50 is > 35.9 µM (inactive).

`O=C(Nc1ccc(C(=O)N2CCOCC2)cc1)c1cccc([N+](=O)[O-])c1`: the IC50 was > 35.9 µM (inactive).

As for `N#CCSc1ccccc1NC(=O)CN1C(=O)C2CC=CCC2C1=O` (stereo not given), the IC50 is > 35.9 µM (inactive).
